Assay results taken from ChEMBL document CHEMBL1125669, “Synthesis of potential dual-acting radiation sensitizer antineoplastic agents: 2,2-dimethylphosphoraziridines containing 2-nitroimidazoles or other electron-affinic moieties” (1991).

Assays:
Assay type in all cases: functional
Mus musculus [1] = test: In vivo antitumor activity against P-388 leukemia in CDF1 mice at 64 mg or 165 umol by ip administration expressed as average wt. change determined between day 0 and day 6 of experiment
Mus musculus [2] = test: In vivo antitumor activity against P-388 leukemia in CDF1 mice at 256 mg or 661 umol by ip administration expressed as median survival time of drug treated mice/median survival time of control mice x100
Mus musculus [3] = test: In vivo antitumor activity against P-388 leukemia in CDF1 mice at 128 mg or 330 umol by ip administration expressed as average wt. change determined between day 0 and day 6 of experiment
Mus musculus [4] = test: In vivo antitumor activity against P-388 leukemia in CDF1 mice at 32 mg or 83 umol by ip administration expressed as average wt. change determined between day 0 and day 6 of experiment
Mus musculus [5] = test: In vivo antitumor activity against P-388 leukemia in CDF1 mice at 16 mg or 41 umol by ip administration expressed as median survival time of drug treated mice/median survival time of control mice x100
Mus musculus [6] = test: In vivo antitumor activity against P-388 leukemia in CDF1 mice at 128 mg or 330 umol by ip administration expressed as median survival time of drug treated mice/median survival time of control mice x100
Mus musculus [7] = test: In vivo antitumor activity against P-388 leukemia in CDF1 mice at 64 mg or 165 umol by ip administration expressed as median survival time of drug treated mice/median survival time of control mice x100
Mus musculus [8] = test: In vivo antitumor activity against P-388 leukemia in CDF1 mice at 32 mg or 83 umol by ip administration expressed as median survival time of drug treated mice/median survival time of control mice x100
Mus musculus [9] = test: In vivo antitumor activity against P-388 leukemia in CDF1 mice at 8 mg or 21 umol by ip administration expressed as median survival time of drug treated mice/median survival time of control mice x100
Mus musculus [10] = test: In vivo antitumor activity against P-388 leukemia in CDF1 mice at 256 mg or 661 umol by ip administration expressed as average wt. change determined between day 0 and day 6 of experiment
Mus musculus [11] = test: In vivo antitumor activity against P-388 leukemia in CDF1 mice at 16 mg or 41 umol by ip administration expressed as average wt. change determined between day 0 and day 6 of experiment
Mus musculus [12] = test: In vivo antitumor activity against P-388 leukemia in CDF1 mice at 8 mg or 21 umol by ip administration expressed as average wt. change determined between day 0 and day 6 of experiment
Mus musculus [13] = test: In vivo antitumor activity against P-388 leukemia in CDF1 mice at 64 mg or 166 umol by ip administration expressed as median survival time of drug treated mice/median survival time of control mice x100
Mus musculus [14] = test: effect of drug treatment in combination with gamma radiation on P-388 leukemia in mice at 250 mg/kg and 400R expressed as average weight change
Mus musculus [15] = test: effect of drug treatment in combination with gamma radiation on P-388 leukemia in mice at 250 mg/kg and 200R expressed as median survival time of drug treated mice/median survival time of control mice x100
Mus musculus [16] = test: effect of drug treatment in combination with gamma radiation on P-388 leukemia in mice at 250 mg/kg and 200R expressed as average weight change
Mus musculus [17] = test: In vivo antitumor activity against P-388 leukemia in CDF1 mice at 128 mg or 331 umol by ip administration expressed as median survival time of drug treated mice/median survival time of control mice x100
Mus musculus [18] = test: effect of drug treatment in combination with gamma radiation on P-388 leukemia in mice at 250 mg/kg and 600R expressed as median survival time of drug treated mice/median survival time of control mice x100
Mus musculus [19] = test: In vivo antitumor activity against P-388 leukemia in CDF1 mice at 256 mg or 663 umol by ip administration expressed as median survival time of drug treated mice/median survival time of control mice x100
Mus musculus [20] = test: effect of drug treatment in combination with gamma radiation on P-388 leukemia in mice at 250 mg/kg and 400R expressed as median survival time of drug treated mice/median survival time of control mice x100
Mus musculus [21] = test: In vivo antitumor activity against P-388 leukemia in CDF1 mice at 256 mg or 663 umol by ip administration expressed as average wt. change determined between day 0 and day 6 of experiment
Mus musculus [22] = test: In vivo antitumor activity against P-388 leukemia in CDF1 mice at 128 mg or 331 umol by ip administration expressed as average wt. change determined between day 0 and day 6 of experiment
Mus musculus [23] = test: effect of drug treatment in combination with gamma radiation on P-388 leukemia in mice at 250 mg/kg and 600R expressed as average weight change
Mus musculus [24] = test: In vivo antitumor activity against P-388 leukemia in CDF1 mice at 64 mg or 166 umol by ip administration expressed as average wt. change determined between day 0 and day 6 of experiment
Mus musculus [25] = test: effect of drug treatment in combination with gamma radiation on P-388 leukemia in mice at 120 mg/kg and 400R expressed as average weight change
Mus musculus [26] = test: effect of drug treatment in combination with gamma radiation on P-388 leukemia in mice at 120 mg/kg and 0R expressed as median survival time of drug treated mice/median survival time of control mice x100
Mus musculus [27] = test: effect of drug treatment in combination with gamma radiation on P-388 leukemia in mice at 120 mg/kg and 600R expressed as median survival time of drug treated mice/median survival time of control mice x100
Mus musculus [28] = test: effect of drug treatment in combination with gamma radiation on P-388 leukemia in mice at 120 mg/kg and 200R expressed as average weight change
Mus musculus [29] = test: effect of drug treatment in combination with gamma radiation on P-388 leukemia in mice at 120 mg/kg and 0R expressed as average weight change
Mus musculus [30] = test: In vivo antitumor activity against P-388 leukemia in CDF1 mice at 200 mg or 861 umol by ip administration expressed as median survival time of drug treated mice/median survival time of control mice x100
Mus musculus [31] = test: In vivo antitumor activity against P-388 leukemia in CDF1 mice at 200 mg or 861 umol by ip administration expressed as average wt. change determined between day 0 and day 6 of experiment
Mus musculus [32] = test: effect of drug treatment in combination with gamma radiation on P-388 leukemia in mice at 120 mg/kg and 600R expressed as average weight change
Mus musculus [33] = test: In vivo antitumor activity against P-388 leukemia in CDF1 mice at 100 mg or 430 umol by ip administration expressed as average wt. change determined between day 0 and day 6 of experiment
Mus musculus [34] = test: effect of drug treatment in combination with gamma radiation on P-388 leukemia in mice at 120 mg/kg and 400R expressed as median survival time of drug treated mice/median survival time of control mice x100
Mus musculus [35] = test: effect of drug treatment in combination with gamma radiation on P-388 leukemia in mice at 120 mg/kg and 200R expressed as median survival time of drug treated mice/median survival time of control mice x100
Mus musculus [36] = test: In vivo antitumor activity against P-388 leukemia in CDF1 mice at 100 mg or 430 umol by ip administration expressed as median survival time of drug treated mice/median survival time of control mice x100

COCC(Cn1ccnc1[N+](=O)[O-])OP(=O)(N1CC1(C)C)N1CC1(C)C (configuration not stated)
Average weight change (Mus musculus [1]): 0.2 g
T/C (Mus musculus [2]): 200%
Average weight change (Mus musculus [3]): -0.3 g
Average weight change (Mus musculus [4]): 0.4 g
T/C (Mus musculus [5]): 100%
T/C (Mus musculus [6]): 150%
T/C (Mus musculus [7]): 133%
T/C (Mus musculus [8]): 122%
T/C (Mus musculus [9]): 106%
Average weight change (Mus musculus [10]): -1.5 g
Average weight change (Mus musculus [11]): 0.8 g
Average weight change (Mus musculus [12]): 1.2 g

CC1(C)CN1P(=O)(NC(=O)OCCn1ccnc1[N+](=O)[O-])N1CC1(C)C (configuration not stated)
T/C (Mus musculus [13]): 144%
Average weight change (Mus musculus [4]): 0.8 g
T/C (Mus musculus [5]): 125%
Average weight change (Mus musculus [14]): 1.17 g
T/C (Mus musculus [15]): 190%
Average weight change (Mus musculus [16]): 1.92 g
T/C (Mus musculus [17]): 156%
T/C (Mus musculus [18]): 230%
T/C (Mus musculus [19]): 169%
T/C (Mus musculus [20]): 200%
T/C (Mus musculus [8]): 125%
Average weight change (Mus musculus [21]): -1 g
T/C (Mus musculus [9]): 113%
Average weight change (Mus musculus [22]): -1.1 g
Average weight change (Mus musculus [23]): 0.67 g
Average weight change (Mus musculus [11]): 0.6 g
Average weight change (Mus musculus [24]): -0.5 g
Average weight change (Mus musculus [12]): 1.6 g

CCOP(=O)(N1CC1(C)C)N1CC1(C)C (configuration not stated)
Average weight change (Mus musculus [25]): -0.93 g
T/C (Mus musculus [26]): 400%
T/C (Mus musculus [27]): 80%
Average weight change (Mus musculus [28]): 0.33 g
Average weight change (Mus musculus [29]): 0.83 g
T/C (Mus musculus [30]): 433%
Average weight change (Mus musculus [31]): -5.2 g
Average weight change (Mus musculus [32]): -3.58 g
Average weight change (Mus musculus [33]): -2.6 g
T/C (Mus musculus [34]): 160%
T/C (Mus musculus [35]): 250%
T/C (Mus musculus [36]): 289%
